No end group written: not given here.

The subject of series [1] is A549 cells. Kind of series: Cell Titer-Glo luminescent cell viability assay. In kind it is cell-based. Here is the method:
A549 cells were treated with 5 ng/mL IFN-γ for 4 days then split into a black 96-well plate at a density of 5,000 cells/well along with non-IFN-γ treated cells. Cells were allowed to adhere overnight before performing assays. The media was removed and fresh media (50 μL) was added to each well. Each probe was added to each well at the corresponding concentration and the plate was returned to the incubator for the given amount of time. To remove any signal due to FBS in the media, the media was removed and cells were washed with PBS (3 times). After the final wash, PBS (50 μL) was added to each well. The plate was incubated at 37° C. in the plate reader, monitoring the change in fluorescence (Ex—485(20) nm, Em—535(20) nm for Rh-probes; gain=90). Samples were run in five replicates and any outliers (outside the range of average±standard deviation) were removed (no more than two replicates per sample were removed). […] To ensure that observed differences in fluorescence were not due to a difference in total cells or cell viability, a Cell Titer-Glo® luminescent cell viability assay (Promega) was performed in a separate white 96 well plate using the same conditions per the manufacturer's protocol. Luminescence was recorded using a BioTek Synergy™ Neo2 Multimode Microplate Reader. […]
In general terms: Cellular ATP, detected with luciferase, serves as a proxy for viable cell number.

For series [2], the target named is T1, sCP (Homo sapiens, UniProt P28074).
T1 construct: purchased Boston Biochem
Kind of series: Hit validation: LC/MS of OVA released from hit peptides by sCP. The class given is biochemical. To be noted: 5.2 μM peptide, 4 nM sCP, 6 hours, 37° C.; vs EIC of control peptide Ala-Ala-Ala-Phe-OVA. Here is the method: (§1) Validation assays were performed under similar conditions as the screen. Briefly, 5 μM of each hit peptide was incubated at 37° C. with 4 nM iCP for six hours in triplicate, then analyzed by LC/MS. All peptides were also analyzed under identical conditions using 4 nM sCP. This was done to confirm that our library design yielded the desired selectivity and not simply sequences that could be efficiently cleaved by either isoform. The mass of OVA was extracted and integrated for each sample, averaging the triplicates. […] Of the nine total hits, six validated successfully. Additionally, all validated hits had at least 1.4-fold selectivity for the iCP (FIG. 4C and FIG. 5). We chose to move forward with the sequence Ala-Thr-Met-Trp, as this not only had highly efficient cleavage by the iCP but also was close to 5-fold selective for the iCP compared to the sCP.
(§2) For validation, purified hit sequences (46 μL final concentration 5.2 μM) in 50 mM tris buffer, pH 7.6 were added to nine wells of a 96 well plate. To each triplicate, 4 μL of tris buffer, 50 nM iCP (final concentration 4 nM) or 50 nM sCP (final concentration 4 nM) was added. This was sealed and allowed to incubate for 6 hours at 37° C. HPLC-grade acetonitrile (50 μL) was added to each sample and the samples were then dried under vacuum. Dried samples were resuspended in 100 μL 50/50 water/acetonitrile with 0.1% formic acid. Each sample was then analyzed by LC/MS with an injection volume of 90 μL. The mass of OVA (887.0-887.9) was extracted. The peak at the same time point as the standard was then integrated and averaged over the triplicate for each sample. Percent change was considered for each triplicate in comparison to the EIC of the control peptide sequence (Ala-Ala-Ala-Phe-OVA). Raw data for integrated OVA peaks can be seen in FIG. 5. Each bar represents an average of triplicates with error bars given as the standard deviation.

The target in series [3] is T2, iCP (Homo sapiens, UniProt P28062).
T2 construct: purchased Boston Biochem
Kind of series: Hit validation: LC/MS of OVA released from hit peptides by iCP. The class given is biochemical. To be noted: for iCP % Change OVA: 5.2 μM peptide, 4 nM iCP, 6 hours, 37° C., vs EIC of control peptide Ala-Ala-Ala-Phe-OVA; for Selectivity: iCP over sCP. Here is the method:
as §1, §2

In series [4] the target is T2, iCP. As to the kind of experiment: Biochemical assay with fluorogenic substrate probes and purified proteasome. The following applies: 31 μM probe, 9 nM proteasome, 37° C. The method, then: Initially, we treated various concentrations of TBZ1 from 0-250 μM with both the iCP and sCP (FIG. 11). All concentrations were incubated at 37° C. with 9 nM of the respective proteasomes and the increase in fluorescence was monitored for 60 min at 1 min intervals. We found 31 μM of TBZ1 to give a favorable profile, maintaining about a 3:1 selectivity compared to the sCP (FIG. 6).
The remaining probes were studied at 31 μM and monitored for an increase in fluorescence over 30 minutes. […] Finally, we also sought to compare TBZ1 to the commercially available, iCP-selective substrate probe Ac-ANW-AMC.
Each probe was dissolved in DMSO at a proper stock concentration such that the final concentration of DMSO in the sample is 2%. For TBZ1, a two-fold serial dilution was performed to determine the optimal concentration for biochemical assays. Each stock was then diluted in 50 mM tris buffer, pH 7.6 (1 μL stock per 40 μL buffer) and added to a black 96 well plate in triplicate (41 μL per well). Stocks ([…] in 50 mM tris buffer, pH 7.6) of either iCP or sCP was added to each well (9 μL/well, final concentration=9 nM). The change in fluorescence (Ex—485(20) nm, Em—535(20) nm; gain=50) was monitored over time on a Tecan Infinite 200® Pro Microplate Reader. Data was plotted as the average of triplicate samples using GraphPad Prism 7 and can be found in FIG. 11. […]

In series [5] the test system is A549 cells. Kind of series: Flow cytometry with TBZ1. The class given is cell-based. The following applies: 31 μM TBZ1, preliminary, single replicate. The method, then:
A549 cells untreated and treated with IFN-γ were each plated into 4 wells of a 12-well plate at 300,000 cells/well. The cells were allowed to adhere overnight. To each well was added fresh media (500 μL) with either DMSO alone or TBZ1 (final concentration=31 μM). The plate was returned to the incubator for an hour. The cells were then washed with PBS (3 times). The plate was incubated for an additional hour in PBS. The cells were removed from each well using trypsin-EDTA solution. After centrifuging and removing the media, the cells were resuspended in PBS. Samples were mixed at a ratio of 1:1 -IFN-γ to +IFN-γ cells then all three samples were analyzed by flow cytometry using a Guava EasyCyte instrument with Guava CytoSoft™ software. Samples were excited with a 488 nm laser and fluorescence intensity was recorded from the 525 nm filter cube. Image analysis was performed using FlowJo v10. Data shown in FIG. 17 is of a single replicate.
On the technique in general: Flow cytometry measures light scatter and fluorescence of single cells or particles in a stream.

In series [6] the target is T1, sCP. As to the kind of experiment: LC/MS analysis of TBZ1 cleavage with purified sCP. In kind it is biochemical. The following applies: 31 μM, 9 nM sCP, 55 min, 37° C. The text has this:
(§3) We first analyzed TBZ1 in the same conditions as the biochemical assay without any iCP to confirm there was not any non-specific degradation occurring during the LC/MS run. In this, we only observed the two isomers of our probe. After treatment with the iCP, we observed two new peaks in the TIC spectrum. These corresponded to the expected Rh-peptoid and peptide fragments. The full mass of TBZ1 was extracted from each triplicate and compared between iCP and sCP samples. […] When this analysis was performed using sCP, we observed that 77% remained uncleaved.
(§4) In the same way as the biochemical assays (FIG. 11), TBZ1 (31 μM) was incubated at 37° C. with or without purified proteasome (9 nM) in 50 mM tris HCl buffer (pH 7.6) for 55 min in triplicate. After incubation, samples were quenched by adding 50 μL of HPLC-grade acetonitrile. The samples were dried under vacuum then resuspended in 50/50 water/acetonitrile with 0.1% formic acid (100 μL). Samples (50 μL) were analyzed by LC/MS (Agilent 1260 Infinity II with a Zorbax Eclipse Plus C18 column, 2.1×50 mm, 1.8-micron attached to an Agilent 6129 quadrupole mass spectrometer). […] Percent TBZ1 remaining in treated samples was determined by comparing the averages of untreated vs. treated samples.

The subject of another series is IFN-γ treated A549 cells. Kind of series: Confocal imaging with TBZ1. In kind it is cell-based. The following applies: 31 μM TBZ1, one hour, vs DMSO. Here is the method: As an additional way to visualize the cells treated with TBZ1, we analyzed IFN-γ cells using confocal microscopy. Following a similar procedure as the plate reader assay, IFN-γ treated cells were plated on glass coverslip chambers coated with poly-D-lysine and were dosed with TBZ1 (31 μM) or DMSO for one hour. After washing, the cells were returned to the incubator for 30 min before staining with Super Bright 436 HLA-A, B, C antibody to serve as a membrane marker.
After four days of treatment with IFN-γ, A549 cells were plated into 8-well chambered coverglass plates that had been coated with poly-d-lysine (20,000 cells/well). The cells were allowed to adhere overnight then washed once with PBS. Fresh media including 31 μM TBZ1 was added to wells in triplicate and incubated for one hour. After incubation, the cells were washed with PBS (3 times) then kept in 200 μL modified Krebs-Ringer buffer (134 mM NaCl, 3.5 mM KCl, 1.2 mM K2HPO4·3H2O, 0.5 mM MgSO4·7H2O, 1.5 mM CaCl2·2H2O, 5 mM NaHCO3 and 10 mM HEPES, pH 7.4). The samples were returned to the incubator. After 30 min, Super Bright 436 HLA-ABC monoclonal antibody (ThermoFisher #62-9983-42) was added to each well (1 μL/well, 0.1 μg) and the samples were returned to the incubator for an additional 30 min. The samples were again washed with PBS and suspended in modified Krebs-Ringer buffer (200 μL) for imaging. […]

Series [7] concerns the target T2, iCP. As to the kind of experiment: LC/MS analysis of TBZ1 cleavage with purified iCP. The class given is biochemical. The following applies: 31 μM, 9 nM iCP, 55 min, 37° C.
From the text: as §3, §4

The test system of series [8] is A549 cells. As to the kind of experiment: Cellular assay with TBZ1, plate-reader fluorescence. In kind it is cell-based. To be noted: 31 μM TBZ1, 15 and 60 min. Here is the method: To determine the selectivity of TBZ1 in cells, both untreated cells and cells treated with IFN-γ were plated at the same cell density into a 96-well plate for fluorescence readouts. After allowing sufficient time for the cells to adhere to the wells, TBZ1 was added and allowed to incubate for various time points. Following the initial incubation, wells were washed with PBS to remove any probe that had not been taken up by the cells and the plate was incubated for an additional hour before the fluorescence was recorded. […] We initially intended to use TBZ4 as a way to confirm that the addition of a peptoid improved cell penetration and protease stability of TBZ1. […]
A549 cells were treated with 5 ng/mL IFN-γ for 4 days then split into a black 96-well plate at a density of 5,000 cells/well along with non-IFN-γ treated cells. […] The plate was incubated at 37° C. in the plate reader, monitoring the change in fluorescence (Ex—485(20) nm, Em—535(20) nm for Rh-probes; gain=90). […] To ensure that observed differences in fluorescence were not due to a difference in total cells or cell viability, a Cell Titer-Glo® luminescent cell viability assay (Promega) was performed in a separate white 96 well plate using the same conditions per the manufacturer's protocol. Luminescence was recorded using a BioTek Synergy™ Neo2 Multimode Microplate Reader. […]

With `COc1ccc(C[C@H](NC(=O)[C@H](C)NC(=O)CN2CCOCC2)C(=O)N[C@@H](Cc2ccccc2)C(=O)C2(C)CO2)cc1` (stereo in doubt) [ONX-0914], in the series on A549 cells [1] (ONX-0914 20 μM, IFN-γ treated A549 cells), the “cell death with ONX-0914 (Cell Titer-Glo)” value is recorded as “not due to cell death”.

Regarding “Ala-Ala-Ala-Phe-OVA [reference compound]”, the “sCP % Change OVA” value at sCP [2] is reported as −25%. The “iCP % Change OVA” value at iCP [3] came out at 0%. Besides, the Selectivity at iCP [3] (OVA released) came out at 1.3.

With TBZ4 (ATMW; also: rhodamine probe), the “change in fluorescence / cleavage by purified proteasome” value with iCP [4] was “not as efficiently cleaved at TBZ1”.

As to “Thr-Met-Trp: hit peptide: N-terminal Ala, P3-P2-P1 Thr-Met-Trp, attached to modified OVA (ATMW; also: attached to modified OVA)”, in the series with sCP [2], the “sCP % Change OVA” value is listed as “+232%”. For the same compound, the “iCP % Change OVA” value with iCP [3] is “+1502%”. Also, in the series with iCP [3] (hit validation, OVA released), the “selectivity for the iCP compared to the sCP” value was about 5 fold. Further, in the series with iCP [3] (OVA released), the Selectivity came out at 4.8.

Consider `COCCCN(CC(=O)N(CCCN(C)C)CC(N)=O)C(=O)CN(CCCN(C)C)C(=O)CNC(=O)CCC(=O)Nc1ccc2c(c1)Oc1cc(NC(=O)[C@H](Cc3c[nH]c4ccccc34)NC(=O)[C@H](CCSC)NC(=O)[C@@H](NC(=O)[C@H](C)N)C(C)O)ccc1C21OC(=O)c2ccccc21` (stereo partly shown) [TBZ1], for which the “cell viability (Cell Titer-Glo) after TBZ1 treatment” value with A549 cells [1] (untreated vs IFN-γ treated A549 cells) is given as “no significant difference”. Besides, the “separation of cell populations by flow cytometry” value in the series on A549 cells [5] is listed as “cell populations can be separated based on increasing amounts of iCP-expressing cells”. The “TBZ1 remaining uncleaved with sCP” value on sCP [6] was determined as 77%. Moreover, the “intracellular staining by confocal microscopy” value in the series on IFN-γ treated A549 cells was “increased staining due to probe cleavage within the cell”. In addition, the “uncleaved TBZ1 remaining in iCP samples” value at iCP [7] came to 31%. For the same compound, in the series on A549 cells [8], the “fluorescence signal in IFN-γ treated vs regular A549 cells” value was “significantly increased signal for IFN-γ treated cells”.

Consider “TBZ2 (AEPY; also: ['rhodamine probe conjugate with peptoid group'])”, for which the “change in fluorescence / cleavage by purified proteasome” value in the series with iCP [4] is “very minimal fluorescence”.

Consider His-Gly-Gly, for which, on sCP [2], the “sCP % Change OVA” value is listed as −78%. Further, the “iCP % Change OVA” value on iCP [3] was −82%. Further, at iCP [3] (OVA released), the Selectivity turned out to be 0.8.

(Values after patent US12449422B2, “Method and composition matter for immunoproteasome-mediated delivery into living cells” (Purdue Research Foundation, priority 2019, dated 2025).)
